{"source": "patent US6773891B2", "about": "(priority 1998, dated 2004)", "key": {"rats [1]": {"tested_on": "rats", "conditions": "three i.p. injections of 25 μg vaccine, 3 and 10 min after 0.03 mg/kg nicotine infusion over 10 seconds", "protocol": "To evaluate the present immunotherapy, an animal model has been developed to simulate the rapid absorption of nicotine from two cigarettes in humans. […] In this model, rats were administered 0.03 mg/kg of nicotine by i.v. infusion over 10 sec., simulating the rapid absorption of nicotine from the lungs in human smokers. Blood samples were taken at 3 and 10 min after nicotine injection for measurement of plasma nicotine."}, "rats [2]": {"tested_on": "rats", "conditions": "for Titer, 1 injection / Titer, 2 injections / Titer, 3 injections: i.p.; for Titer, 1 injection: one week after 1st injection; for Titer, 2 injections: one week after 2nd injection; for Titer, 3 injections: one week after 3rd injection", "procedure": "Rats were immunized intraperitoneally with the vaccines three times. Injections were given two weeks apart with test bleeds performed one week following the first and second injection. The rats were then exsanguinated one week after the third injection. Freund's complete adjuvant was used for the first injection, and incomplete Freund's adjuvant for the subsequent injections. Serum samples were evaluated in an ELISA assay.\n(§1) Antibodies generated against 3′ AMNic vaccine were evaluated using a 3′ AMNic-pGlu ELISA as follows: Dynatech Immulon 4 microtiter plates (Chantilly, Va.) were coated 100 μL/well with 10 ng/mL 3′ AMNic-pGlu in 0.1 M bicarbonate buffer, pH 9.6 and allowed to incubate overnight (ON) at room temperature (RT). The plates were then aspirated and blocked with 1% BSA in PBS for one hour at RT. […] The plates were washed ([…], 0.1% BRIJ) five times and diluted samples and reference serum were loaded. The reference and samples were 2-fold diluted down the plates for a final volume of 100 μL/well and plates are incubated for 1 hour at 37° C. The plates were then washed again and loaded 100 μL/well with peroxidase-conjugated anti-species IgG, Fc specific (Jackson, West Grove, Pa.) diluted in PBB and incubated at 37° C. for one hour. The plates were washed and incubated 10 minutes at RT with 100 μl/well 3,3′,5,5′-tetramethylbenzidine (TMB) substrate (KPL, Gaithersburg, Md.) diluted 1:1 with H2O2 (supplied with TMB reagent kit). The reaction is stopped with the addition of 100 μL/well 1 M phosphoric acid and read at 450 nm on an MR4000 microtiter plate reader (Dynatech). Samples are quantified in relation to the reference using parallel line analysis."}, "mice": {"tested_on": "mice", "conditions": "for Titer, 1 injection / Titer, 2 injections / Titer, 3 injections: s.c.; for Titer, 2 injections: one week after 2nd injection; for Titer, 3 injections: one week after 3rd injection", "protocol": "Animals were immunized using standard protocols. In mice, three subcutaneous injections of vaccine were administered, two weeks apart, with test bleeds performed one week following the first and second injection, and exsanguination occurring one week following the third injection. Serum samples were evaluated in an ELISA assay, described in Example 10. The ELISA assay utilized 3′ AMNic-pGlu bound to microtiter plates.\nAntibodies generated against 3′ AMNic vaccine were evaluated using a 3′ AMNic-pGlu ELISA as follows: Dynatech Immulon 4 microtiter plates (Chantilly, Va.) were coated 100 μL/well with 10 ng/mL 3′ AMNic-pGlu in 0.1 M bicarbonate buffer, pH 9.6 and allowed to incubate overnight (ON) at room temperature (RT). The plates were then aspirated and blocked with 1% BSA in PBS for one hour at RT. […] The plates were washed (9% NaCl, 0.1% BRIJ) five times and diluted samples and reference serum were loaded. The reference and samples were 2-fold diluted down the plates for a final volume of 100 μL/well and plates are incubated for 1 hour at 37° C. The plates were then washed again and loaded 100 μL/well with peroxidase-conjugated anti-species IgG, Fc specific (Jackson, West Grove, Pa.) diluted in PBB and incubated at 37° C. for one hour. The plates were washed and incubated 10 minutes at RT with 100 μl/well 3,3′,5,5′-tetramethylbenzidine (TMB) substrate (KPL, Gaithersburg, Md.) diluted 1:1 with H2O2 (supplied with TMB reagent kit). The reaction is stopped with the addition of 100 μL/well 1 M phosphoric acid and read at 450 nm on an MR4000 microtiter plate reader (Dynatech). Samples are quantified in relation to the reference using parallel line analysis."}, "rabbits": {"tested_on": "rabbits", "conditions": "i.m., dose 100 μg, arithmetic mean six to seven weeks after third injection", "procedure": "as §1"}, "[3]": {"conditions": "0.5 mg/mL in 1 mL glass vials", "protocol": "A stability study of the nicotine-carrier conjugate of example 4 was carried out. The study used the vaccine vialed in 1 mL glass vials at a concentration of 0.5 mg/mL and the stability of the vialed vaccine was tested at three different temperatures: −70° C., 2 to 8° C. and room temperature.\nThe stability study consisted of monitoring and assaying the conjugate vaccine using the following:\n1.) Visual observation to look for any particulates formed (turbidity, precipitation).\n2.) Checking for any significant pH change.\n3.) Size exclusion chromatography profile in combination with UV absorption at 260 and 280 nm to determine if the ratio of nicotine incorporation changed.\n4.) Reversed phase chromatography to check for any carrier protein degradation.\n5.) SDS PAGE with silver staining looking for any proteolytic cleavage of the conjugated protein."}, "rats [4]": {"tested_on": "rats", "assay": "Locomotor effects of nicotine", "type": "in vivo", "conditions": "subcutaneous injection", "text": "This experiment used was designed to determine whether passive immunization could prevent an immediate CNS mediated action of nicotine. The rat model used in this experiment was developed by Dr. David Malin and is described in Malin et al. Nicotine-specific IgG reduced distribution to brain and attenuates its behavioral and cardiovascular effects in rats, submitted to the Fifth Annual Meeting of the Society for Research on Nicotine and Tobacco, San Diego, Calif., Mar. 5-7, 1999; To establish a baseline, the effect of a subcutaneous injection of 0.8 mg/kg of nicotine tartrate on locomotor activity level of rats was measured. The 0.8 mg/kg dose of nicotine tartrate is the highest dose that could be used without inducing locomotor abnormalities.\nThere was an increase in activity level after nicotine injection in rats that were not pre-treated with anti-[3′ AMNic-Suc-rEPA], and in rats that were pretreated with 50 mg of normal rabbit serum IgG. See FIG. 6A, right bar and FIG. 6B, left bar. This effect was suppressed by pretreating the animals with 50 mg of anti-[3′ AMNic-Suc-rEPA] immune IgG (FIG. 6B, right bar)."}, "[5]": {"conditions": "cited from earlier work"}}, "note": "Like-named read-outs stand apart in the source and are kept apart here."}
{"compound": "3′aminomethyl-(−)-nicotine-succinyl-rEPA [3′AMNic-Suc-rEPA]", "values": [{"measurement": "Nicotine in plasma versus non-immunized controls", "setting": "rats [1]", "result": "increased levels of nicotine in plasma"}, {"measurement": "Booster response", "setting": "rats [2]", "result": "showed the ability to induce the booster response"}, {"measurement": "Titer, 1 injection", "setting": "rats [2]; Freund's adjuvant, dose 15 μg (protein assay)", "result": 18}, {"measurement": "Titer, 2 injections", "setting": "rats [2]; dose 15 μg (protein assay)", "result": "7,942"}, {"measurement": "Titer, 3 injections", "setting": "rats [2]; dose 15 μg (protein assay)", "result": "9,947"}, {"measurement": "Titer, 1 injection", "setting": "rats [2]; dose 25 μg (protein assay)", "result": 4}, {"measurement": "Titer, 2 injections", "setting": "rats [2]; dose 25 μg (protein assay)", "result": "1,446"}, {"measurement": "Titer, 3 injections", "setting": "rats [2]; dose 25 μg (protein assay)", "result": "5,991"}, {"measurement": "Titer, 1 injection", "setting": "rats [2]; dose 50 μg (protein assay)", "result": 353}, {"measurement": "Titer, 2 injections", "setting": "rats [2]; dose 50 μg (protein assay)", "result": "7,211"}, {"measurement": "Titer, 3 injections", "setting": "rats [2]; dose 50 μg (protein assay)", "result": "8,996"}, {"measurement": "Booster response", "setting": "mice", "result": "showed the ability to induce the booster response"}, {"measurement": "Titer, 1 injection", "setting": "mice; dose 1 μg (protein assay), arithmetic mean one week after 1st injection", "result": 0}, {"measurement": "Titer, 2 injections", "setting": "mice; dose 1 μg (protein assay)", "result": 36}, {"measurement": "Titer, 3 injections", "setting": "mice; dose 1 μg (protein assay)", "result": "4,280"}, {"measurement": "Titer, 1 injection", "setting": "mice; dose 5 μg (protein assay), one week after 1st injection", "result": 1}, {"measurement": "Titer, 2 injections", "setting": "mice; dose 5 μg (protein assay)", "result": 884}, {"measurement": "Titer, 3 injections", "setting": "mice; dose 5 μg (protein assay)", "result": "10,727"}, {"measurement": "Titer, 1 injection", "setting": "mice; dose 15 μg (protein assay), one week after 1st injection", "result": 3}, {"measurement": "Titer, 2 injections", "setting": "mice; dose 15 μg (protein assay)", "result": "2,476"}, {"measurement": "Titer, 3 injections", "setting": "mice; dose 15 μg (protein assay)", "result": "14,160"}, {"measurement": "Titer", "setting": "rabbits", "result": "132,000"}, {"measurement": "Stability of the conjugate", "setting": "[3]; −70° C. and 2 to 8° C.", "result": "stability of the conjugate for six months"}, {"measurement": "Stability of the conjugate", "setting": "[3]; −70° C., 2 to 80° C. and room temperature", "result": "stability of the conjugate for six months"}]}
{"compound": "CN1CCCC1c1cccnc1.O=C(O)C(O)C(O)C(=O)O", "note": "(stereo not drawn) [nicotine tartrate]", "values": [{"measurement": "Highest dose without inducing locomotor abnormalities", "setting": "rats [4]", "result": 0.8, "unit": "mg/kg"}]}
{"compound": "3-aminomethyl-(−)-nicotine-polyglutamic acid-ADH-rEPA [3′AMNic-pGlu-ADH-rEPA]", "values": [{"measurement": "Booster response", "setting": "rats [2]", "result": "showed the ability to induce the booster response"}, {"measurement": "Titer, 1 injection", "setting": "rats [2]; dose 100 μg (dry weight of lyophilized conjugate)", "result": 0}, {"measurement": "Titer, 2 injections", "setting": "rats [2]; dose 100 μg (dry weight)", "result": "1,067"}, {"measurement": "Titer, 3 injections", "setting": "rats [2]; dose 100 μg (dry weight)", "result": "3,752"}, {"measurement": "Booster response", "setting": "mice", "result": "showed the ability to induce the booster response"}, {"measurement": "Titer, 1 injection", "setting": "mice; dose 2 μg (dry weight of lyophilized conjugate), one week after 1st injection", "result": 2}, {"measurement": "Titer, 2 injections", "setting": "mice; dose 2 μg (dry weight)", "result": 739}, {"measurement": "Titer, 3 injections", "setting": "mice; dose 2 μg (dry weight)", "result": "6,586"}, {"measurement": "Titer, 1 injection", "setting": "mice; dose 10 μg (dry weight), one week after 1st injection", "result": 2}, {"measurement": "Titer, 2 injections", "setting": "mice; dose 10 μg (dry weight)", "result": "2,490"}, {"measurement": "Titer, 3 injections", "setting": "mice; dose 10 μg (dry weight)", "result": "9,573"}, {"measurement": "Titer, 1 injection", "setting": "mice; dose 30 μg (dry weight), one week after 1st injection", "result": 11}, {"measurement": "Titer, 2 injections", "setting": "mice; dose 30 μg (dry weight)", "result": "2,822"}, {"measurement": "Titer, 3 injections", "setting": "mice; dose 30 μg (dry weight)", "result": "8,195"}, {"measurement": "Titer", "setting": "rabbits", "result": "147,000"}]}
{"compound": "CN1CCC[C@H]1c1cccnc1", "note": "[nicotine, (S)-(−)-nicotine]", "values": [{"measurement": "Time to peak levels of nicotine in the blood", "setting": "[5]; after smoking a cigarette", "result": "10 to 15", "unit": "min"}, {"measurement": "Arterial versus venous nicotine concentrations", "setting": "[5]; humans, smoking a cigarette", "result": 10, "unit": "fold"}]}
